# From patent US20250302981A1, “NOVEL USE OF ANTICANCER AGENT PRODRUG CONJUGATE” (UNIVERSITY OF ULSAN FOUNDATION FOR INDUSTRY COOPERATION, priority 2020, published 2025)
# *1 amine or outer side, *2 acyl side, *3 side chain or, on linkers, in order; H or OH if unused. Where a SMILES comes first, the peptide text is derived from it. [ ]: non-standard residue; d: D form. The star is where a group is joined. Doxorubicin(3'-N) = COc1cccc2c1C(=O)c1c(O)c3c(c(O)c1C2=O)C[C@@](O)(C(=O)CO)C[C@@H]3O[C@H]1C[C@H](N*)[C@H](O)[C@H](C)O1; Hexanoyl(6-maleimido) = O=C1C=CC(=O)N1CCCCCC(=O)*; PABC = O=C(OCc1ccc(N[*:1])cc1)[*:2]
# B1: recombinant human caspase-3 (protein)
# chain: SGISLDNSYKMDYPEMGLCIIINNKNFHKSTGMTSRSGTDVDAANLRETFRNLKYEVRNKNDLTREEIVELMRDVSKEDHSKRSSFVCVLLSHGEEGIIFGTNGPVDLKKITNFFRGDRCRSLTGKPKLFIIQACRGTELDCGIETDSGVDDDMACHKIPVEADFLYAYSTAPGYYSWRNSKDGSWFIQSLCAMLKQYADKLEFMHILTRVNRKVATEFESFSFDATFHAKKQIPCIVSMLTKELYFYH
# Assays:
# [1] = molecular target: T1, human serum albumin (HSA) (Homo sapiens, UniProt P02768); experiment: Conjugate binding with human serum albumin, HPLC analysis
# T1 construct: purchased Sigma-Aldrich
# Method: The maleimide-KGDEVD-PABC-doxorubicin synthesized in Example 1 was then added to a concentration of 100 μM and incubated at room temperature. The samples were analyzed by analytical HPLC (FIG. 1). (KGDEVD corresponds to SEQ ID NO: 32)
# [2] = molecular target: T2, serum albumin in human blood (human plasma sample) (Homo sapiens, UniProt P02768); experiment: Conjugate binding with serum albumin in human plasma, HPLC analysis
# T2 construct: from tissue; host or cells: human plasma
# Method: The conjugation binding of maleimide-KGDEVD-PABC-doxorubicin with HSA was completed in 3 min. However, when plasma was pre-incubated with 4-maleimidobutyric acid which has a thiol-bound maleimide functional group, prior to incubation with maleimide-KGDEVD-PABC-doxorubicin no, binding of maleimide-KGDEVD-PABC-doxorubicin to plasma was observed even after 1 h as in the previous experiment conducted with serum.
# [3] = Pharmacokinetic analysis in rats; format: in vivo, Sprague-Dawley rats; details: equivalent to 1 mg/kg doxorubicin; for half-life: Sprague-Dawley, rat, plasma, iv, 1 mg/kg
# Method: Blood samples were collected at 5, 15, 30, 60, and 90 min intervals and then again at 2, 4, 8, 12, 24, 48, 72, 96, and 144 h. The blood samples were stabilized with sodium citrate and then cryocentrifuged at 2000×g for 15 min to obtain plasma. 200 μl of the plasma sample was placed in a 96-well black microplate and the fluorescence of doxorubicin was measured at 485/590 nm. The reference was fresh plasma and the fluorescence was measured in the same manner.
# [4] = Pharmacokinetic analysis in cynomolgus monkeys; format: in vivo; details: intravenous, equivalent to 1 mg/kg doxorubicin
# Method: Blood samples were collected at 15, 30, 45, 60, and 90 min intervals, and then again at 2, 3, 4, 6, 8, 12, 24, 48, 72, 96, 120, 144, and 168 h. The blood samples were stabilized with sodium citrate and then cryocentrifuged at 2000×g for 15 min to obtain plasma. 200 μl of the plasma sample was added to a 96-well black microplate and the fluorescence of doxorubicin was measured at 485/590 nm. The reference was fresh plasma and the fluorescence was measured in the same manner.
# [5] = test system: tumor cell lines with wild-type KRAS genotype; experiment: Concentration-dependent cytotoxicity by MTT analysis; format: cell-based; details: wild-type KRAS cells, concentrations up to 100 μM
# [6] = test system: tumor cell lines with KRAS variant genotype; experiment: as above; format: cell-based; details: KRAS variant cells
# [7] = test system: tumor cell lines with wild-type PTEN protein genotype; experiment: as above; format: cell-based; details: PTEN wild-type cells, up to 100 μM
# [8] = test system: tumor cell lines with PTEN protein loss genotype; experiment: as above; format: cell-based; details: PTEN protein loss cells, up to 100 μM
# [9] = test system: cell lines with KRAS variant genotype (Mia-paca2, AsPC1, MDA-MB231, CT26, HCT116, H2122, A549); experiment: Tumor growth in mice inoculated with wild-type KRAS or KRAS variant tumor cells; format: in vivo, C3H/HeN mice; details: intravenous every 3 days, equivalent to 1, 5 and 10 mg/kg doxorubicin, 1 month
# Method: The maleimide-KGDEVD-PABC-doxorubicin was administered intravenously every 3 days at doses equivalent to 1, 5, and 10 mg/kg of doxorubicin, respectively, and then observed for 1 month. […] Therefore, the prodrug conjugate according to one embodiment of the present invention is not expected to have significant side effects.
# [10] = test system: cancer cell groups with PTEN protein loss genotype (H1299, MDA-MB436); experiment: Tumor growth in mice inoculated with PTEN protein loss tumor cells; format: in vivo, C3H/HeN mice; details: intravenous every 3 days, equivalent to 1, 5 and 10 mg/kg doxorubicin, 1 month; compared to the control group
# Method: The maleimide-KGDEVD-PABC-doxorubicin was administered intravenously every 3 days at concentrations equivalent to 1, 5, and 10 mg/kg of doxorubicin, respectively, and observed for 1 month.
# [11] = test system: tumor cells having KRAS variant genotype (Mia-paca2); experiment: Tumor inhibition compared with Aldoxorubicin in mice implanted with KRAS variant tumor cells; format: in vivo, C3H/HeN mice; details: Mia-paca2, intravenous every 3 days, equivalent to 5 mg/kg doxorubicin, 1 month
# Source text: Using C3H/HeN mice implanted with tumor cells having KRAS variant genotype (Mia-paca2), the tumor inhibition effect of the maleimide-KGDEVD-PABC-doxorubicin (MPD1) synthesized in Example 1 of the present invention, the maleimide-KGDVED-PABC-doxorubicin (EMC-KGDVED-DOX) with different peptide sequence, and Aldoxorubicin, a conventional doxorubicin-based anticancer drug which is linked to a maleimide so that it binds to albumin in plasma upon administration and increases half-life, were compared (FIGS. 19 and 20).
# [12] = molecular target: HSA-Maleimide-KGDVED-PABC-doxorubicin, P02768
# [13] = molecular target: HSA-maleimide-KGDEVD-PABC-doxorubicin, P02768
molecule,measurement,setting,value
"COc1cccc2c1C(=O)c1c(O)c3c(c(O)c1C2=O)C[C@@](O)(C(=O)CO)C[C@@H]3O[C@H]1C[C@H](NC(=O)OCc2ccc(NC(=O)[C@H](CC(=O)O)NC(=O)[C@@H](NC(=O)[C@H](CCC(=O)O)NC(=O)[C@H](CC(=O)O)NC(=O)CNC(=O)[C@H](CCCCNC(=O)CCCCCN3C(=O)C=CC3=O)NC(C)=O)C(C)C)cc2)[C@H](O)[C@H](C)O1 [maleimide-KGDEVD-PABC-doxorubicin, Ac-Lys(EMC)-Gly-Asp-Glu-Val-Asp-PABC-DOX] (Ac-K(Hexanoyl(6-maleimido))GDEVD[PABC]-{Doxorubicin(3'-N)})",time to complete conjugate binding with HSA,"[1]; HSA 700 μM in PBS, conjugate 100 μM, room temperature",3 min
same,binding to HSA pre-incubated with 4-maleimidobutyric acid,"[1]; HSA pre-incubated with 4-maleimidobutyric acid, after 1 h",no binding
same,time to complete conjugation binding with HSA in human plasma,"[2]; human plasma, conjugate 100 μM, room temperature",3 min
same,binding to plasma pre-incubated with 4-maleimidobutyric acid,"[2]; plasma pre-incubated with 4-maleimidobutyric acid, after 1 h","no, binding"
same,half-life,[3]; read-out: half-life,> 19 h
same,half-life,[3]; read-out: terminal half-life,0.5 h
same,time remained active in plasma after administration,[3]; intravenous,6 days
same,time until plasma concentrations decreased below the detection limit of 5 ng/ml,[3]; intravenous,≤ 4 h
same,half-life,"[4]; cynomolgus monkey, in vivo, read-out: terminal half-life",> 106 h
same,time detectable in plasma after administration,[4],7 days
same,IC50,[5],generally higher
same,IC50,[6],lower
same,IC50 values based on doxorubicin,[7],lower IC50 values
same,IC50 values based on doxorubicin,[8],higher IC50 values
same,tumor growth inhibition,[9]; KRAS variant versus wild-type KRAS tumors,better tumor growth inhibition than those with wild-type KRAS genotype
same,effect on body weight of the experimental animals,[9]; wild-type KRAS and KRAS variant tumors,none of the drugs had a significant effect on the body weight
same,tumor inhibition,[10],greater tumor inhibition
same,in vivo anticancer effects (tumor inhibition),[11],anticancer effects similar to those of Aldoxorubicin
"COc1cccc2c1C(=O)c1c(O)c3c(c(O)c1C2=O)C[C@@](O)(C(=O)CO)C[C@@H]3O[C@H]1C[C@H](NC(=O)OCc2ccc(NC(=O)[C@H](CC(=O)O)NC(=O)[C@@H](NC(=O)[C@H](CCC(=O)O)NC(=O)[C@H](CC(=O)O)NC(=O)CNC(=O)[C@H](CCCCN)NC(C)=O)C(C)C)cc2)[C@H](O)[C@H](C)O1 [AcKGDEVD-PABC-doxorubicin, Ac-Lys-Gly-Asp-Glu-Val-Asp-PABC-DOX, reference compound] (Ac-KGDEVD[PABC]-{Doxorubicin(3'-N)})",time until plasma concentration decreased below the detection limit of 5 ng/ml,[4],≤ 6 h
B1,"cleavage and release of doxorubicin, HPLC",[12],no cleavage was observed for the HSA-Maleimide-KGDVED-PABC-doxorubicin conjugate with a different peptide amino acid sequence
same,"cleavage and release of doxorubicin, HPLC",[13],Doxorubicin was cleaved and isolated from the HSA-maleimide-KGDEVD-PABC-doxorubicin conjugate within 1 h
